# Measured values taken from patent US10703701B2, “Fluoroalkyl, fluoroalkoxy, phenoxy, heteroaryloxy, alkoxy, and amine 1,4-benzoquinone derivatives for treatment of oxidative stress disorders” (PTC Therapeutics, Inc., priority 2015, dated 2020).
# pEC50: −log10 of the molar value.
# Key:
# [1] = system: Q7 cells (ST HDH Q7/7; immortalized mouse striatal cells); assay: 384-Well Cell Titer Glo (CTG) Q7 Cystine Deprivation Survival Assay; format: cell-based; conditions: read-out: Q7 Cystine Free CTG 384 CSA (EC50)
# Protocol: (§1) In neuronal cells excess extracellular glutamate inhibits the cystine/glutamate antiporter leading to intracellular cysteine depletion, GSH depletion, ROS production and cell death, a phenomenon termed oxidative glutamate toxicity or oxytosis. Q7 cells (ST HDH Q7/7; immortalized mouse striatal cells) challenged with cystine-free media recapitulate this phenotype. An initial screen was performed to identify compounds effective in rescuing Q7 cells from death resulting from cystine deprivation. This method is further described in Yonezawa et al., J. Neurochem 67, 566-573 (1996), and Li et al., J Neurosci., 23, 5816-5826 (2003).
# (§2) DMEM (Catalog no. 11995-040), DMEM without Cystine (Catalog no. 21013-024), PBS (Phosphate buffered saline), Penicillin-streptomycin mix, L-Glutamine and Pyruvate were purchased from Gibco. Fetal Bovine Serum was obtained from Mediatech, Inc. Mouse striatum derived ST HDH Q7/7 (Q7) cells were obtained from Dr. M. MacDonald (Massachusetts General Hospital). Methionine and Vitamin K2 were purchased from Sigma Aldrich. Cell Titer Glo 2.0 was purchased from Promega. Geneticin (G418) Sulfate was purchased from Santa Cruz Biotechnology. Cell culture medium (Growth medium) was made by combining 50 mL Fetal Bovine Serum, 100 U/mL penicillin, 100 microgram/mL streptomycin and 400 microgram/mL Geneticin (G418) Sulfate; DMEM was added to make the volume up to 500 mL. Assay medium (without Cystine) was made by combining 50 mL Fetal Bovine Serum, 100 U/mL penicillin, 100 microgram/mL streptomycin, 4 mM L-Glutamine, 1 mM Pyruvate and 30 mg/L Methionine; DMEM without Cystine was added to make the volume up to 500 mL. During the course of the experiments, these solutions were stored at 4° C. The cells were grown in 10-cm diameter tissue culture-treated dishes. Every fourth day, the cells were subcultured by trypsinization and re-seeding at a cell density of 500,000 cells per dish.
# (§3) Test samples were supplied in 1.5 mL glass vials. The compounds were diluted with an appropriate volume of DMSO to result in a 1 mM stock solution. Once dissolved, they were stored at −20° C.
# Test Samples were Screened According to the Following Protocol:
# Q7 cells were cultured routinely as described herein. For 384-well cell survival assays, cells were seeded in clear bottom, black wall 384-well tissue culture-treated polystyrene plates by resuspending a cell suspension at a density of 50,000 cells/mL in growth medium, then dispensing 60 microliters of cell suspension per well using either an electronic multichannel pipette or a Multidrop™ Combi Reagent Dispenser (ThermoFisher Scientific), corresponding to 3,000 cells/well. The cell-containing plates were incubated 5 hours at 33° C. in an atmosphere with 95% humidity and 5% CO2 to allow attachment of the cells to the culture plate.
# 5 hours after cell seeding into the 384-well assay plate, the cell culture medium was replaced by washing 2 times with 70 microliters/well PBS (without Ca^++ and Mg^++) using a BioTek ELx405 plate washer. After the final aspiration, 60 microliters/well of assay medium (without cystine) was added using the Multidrop Combi Reagent Dispenser. Within 45 minutes, test compounds were then added to varying final concentrations using the Tecan D300e Digital Dispenser, with subsequent back-filling with DMSO diluent to a final concentration of 0.3% (v/v).
# After medium change to cystine-free medium and compound addition, cell plates were incubated at 33° C. in an atmosphere of 5% CO2 and 95% humidity. 18 hours later, the plates were equilibrated to room temperature for 15 minutes. Then, 10 microliters/well of room temperature Cell Titer Glo 2.0 reagent was added using the Multidrop Combi Reagent Dispenser. After 15 minutes of incubation at room temperature, the luminescence (100 ms integration time) per well was determined using the BioTek Synergy plate reader. Data was imported into Microsoft Excel. […]
# [2] = system: Q7 cells (ST HDH Q7/7; immortalized mouse striatal cells); assay: Q7 cystine deprivation cell survival assay (96-well, Calcein AM); format: cell-based; conditions: for pEC50: Mus musculus, rescue of Q7 cells from cystine deprivation, 18 hours, Calcein AM fluorescence, 96-well
# Protocol: as §1
# as §2, with “21013-024),” for “21013-024), PBS (Phosphate buffered saline),”, “Calcein AM” for “Cell Titer Glo 2.0”, “Anaspec.” for “Promega.”
# as §3
# Test samples were screened according to the following protocol:
# Q7 cells were cultured routinely as described herein. For cell survival assays, cells were seeded in clear 96-well tissue culture-treated polystyrene plates by resuspending a cell suspension at a density of 100,000 cells/mL in growth medium, then dispensing 100 microliters of cell suspension per well using an electronic multichannel pipette, corresponding to 10,000 cells/well. The cell-containing plates were incubated 5 hours at 33° C. in an atmosphere with 95% humidity and 5% CO2 to allow attachment of the cells to the culture plate.
# Test compounds were thawed, and 2 microliters of a 1 mM stock solution was diluted in a microtiter plate well containing 98 microliters of 10% DMSO in H2O, resulting in a 20 micromolar master solution. Serial dilutions from the master solution were made in 10% DMSO. The period between the single dilution steps was kept as short as possible (generally less than 30 seconds). 5 hours after cell seeding into the 96-well assay plate, the cell culture medium was removed by inverting the plates and gently patted onto paper towel. The plates were washed once with 100 microliters of PBS containing Ca^++ and Mg^++. PBS containing Ca^++ and Mg^++ were removed by inverting the plates and gently patted onto a paper towel. After washing the wells, 100 microliters of assay medium without Cystine was dispensed and then treated with 10 microliters of the various compound dilutions in triplicates. Final concentration of DMSO in the well was 1%.
# After medium change to cystine-free medium and compound addition, cell plates were incubated at 33° C. in an atmosphere of 5% CO2 and 95% humidity. 18 hours later, the medium from all plates was removed by inverting the plates and gently tapping the plate onto a paper towel. […]
# [3] = rescue of Q7 cells from cystine deprivation, 18 hours, Cell Titer Glo luminescence, 384-well
Structure (SMILES),"pEC50 [1, 3]",pEC50 [2],pEC50 ([1]; 18 h),further results
"CC1=C(C)C(=O)C(CCCCCCCCOCC(F)(F)F)=C(C)C1=O [Example 1, 2,3,5-trimethyl-6-(8-(2,2,2-trifluoroethoxy)octyl)cyclohexa-2,5-diene-1,4-dione]",6.30 to 7.00,6.00 to 6.30,,
"CC1=C(C)C(=O)C(CCCCCCCCC(F)(F)F)=C(C)C1=O [Example 2, 2,3,5-trimethyl-6-(9,9,9-trifluorononyl)cyclohexa-2,5-diene-1,4-dione]",6.30 to 7.00,6.00 to 6.30,,
"COCCCCCCCCC1=C(C)C(=O)C(C)=C(C)C1=O [Example 3, 2-(8-methoxyoctyl)-3,5,6-trimethylcyclohexa-2,5-diene-1,4-dione]",6.30 to 7.00,6.00 to 6.30,,
"CC1=C(C)C(=O)C(CCCCCCCCCCC(F)(F)F)=C(C)C1=O [Example 4, 2,3,5-trimethyl-6-(11,11,11-trifluoroundecyl)cyclohexa-2,5-diene-1,4-dione]",> 7.00,> 6.30,,
"CC1=C(C)C(=O)C(CCCCCCCCCCOCC(F)(F)F)=C(C)C1=O [Example 5, 2,3,5-trimethyl-6-(10-(2,2,2-trifluoroethoxy)decyl)cyclohexa-2,5-diene-1,4-dione]",> 7.00,> 6.30,,
"COCCCCCCCCCCC1=C(C)C(=O)C(C)=C(C)C1=O [Example 6, 2-(10-methoxydecyl)-3,5,6-trimethylcyclohexa-2,5-diene-1,4-dione]",> 7.00,6.00 to 6.30,,
"CC1=C(C)C(=O)C(C(C)C)=C(CCCCCCCCCCC(F)(F)F)C1=O [Example 7, 2-isopropyl-5,6-dimethyl-3-(11,11,11-trifluoroundecyl)cyclohexa-2,5-diene-1,4-dione]",6.30 to 7.00,> 6.30,,
"CC1=C(C)C(=O)C(NS(C)(=O)=O)=C(CCCCCCCCCCC(F)(F)F)C1=O [Example 8, N-(4,5-dimethyl-3,6-dioxo-2-(11,11,11-trifluoroundecyl)cyclohexa-1,4-dien-1-yl)methanesulfonamide]",> 7.00,,,
"CC1=C(C)C(=O)C(CCCCCCCCCCOC(C)C)=C(C)C1=O [Example 9, 2-(10-isopropoxydecyl)-3,5,6-trimethylcyclohexa-2,5-diene-1,4-dione]",,,> 7.00,
"CCOCCCCCCCCC1=C(C)C(=O)C(C)=C(C)C1=O [Example 10, 2-(8-ethoxyoctyl)-3,5,6-trimethylcyclohexa-2,5-diene-1,4-dione]",,,> 7.00,
"CC1=C(C)C(=O)C(CCCCCCCCCCOCC(C)C)=C(C)C1=O [Example 11, 2-(10-isobutoxydecyl)-3,5,6-trimethylcyclohexa-2,5-diene-1,4-dione]",,,> 7.00,
"CCCOCCCCCCCCCCC1=C(C)C(=O)C(C)=C(C)C1=O [Example 12, 2,3,5-trimethyl-6-(10-propoxydecyl)cyclohexa-2,5-diene-1,4-dione]",,,> 7.00,
"CC1=C(C)C(=O)C(CCCCCCCCCCOc2ccccc2)=C(C)C1=O [Example 13, 2,3,5-trimethyl-6-(10-phenoxydecyl)cyclohexa-2,5-diene-1,4-dione]",,,> 7.00,
"CC1=C(C)C(=O)C(CCCCCCCCOC(C)C)=C(C)C1=O [Example 14, 2-(8-isopropoxyoctyl)-3,5,6-trimethylcyclohexa-2,5-diene-1,4-dione]",,,> 7.00,
"COCCCCCCC1=C(C)C(=O)C(C)=C(C)C1=O [Example 15, 2-(6-methoxyhexyl)-3,5,6-trimethylcyclohexa-2,5-diene-1,4-dione]",,,6.30 to 7.00,
"CCOCCCCCCCCCCC1=C(C)C(=O)C(C)=C(C)C1=O [Example 16, 2-(10-ethoxydecyl)-3,5,6-trimethylcyclohexa-2,5-diene-1,4-dione]",> 7.00,,,
"CCCOCCCCCCCCC1=C(C)C(=O)C(C)=C(C)C1=O [Example 17, 2,3,5-trimethyl-6-(8-propoxyoctyl)cyclohexa-2,5-diene-1,4-dione]",> 7.00,,,
"CC1=C(C)C(=O)C(CCCCCCCCOCC(C)C)=C(C)C1=O [Example 18, 2-(8-isobutoxyoctyl)-3,5,6-trimethylcyclohexa-2,5-diene-1,4-dione]",,,> 7.00,
"CC1=C(C)C(=O)C(CCCCCCCCOc2cccnc2C)=C(C)C1=O [Example 19, 2,3,5-trimethyl-6-(8-((2-methylpyridin-3-yl)oxy)octyl)cyclohexa-2,5-diene-1,4-dione]",,,6.30 to 7.00,
"CC1=C(C)C(=O)C(CCCCCCCCCCN(C)CC(C)C)=C(C)C1=O [Example 20, 2-(10-(isobutyl(methyl)amino)decyl)-3,5,6-trimethylcyclohexa-2,5-diene-1,4-dione]",> 7.00,,,
"CC1=C(C)C(=O)C(CCCCCCCCCCN2CCCC2)=C(C)C1=O [Example 21, 2,3,5-trimethyl-6-(10-(pyrrolidin-1-yl)decyl)cyclohexa-2,5-diene-1,4-dione]",> 7.00,,,
"CC1=C(C)C(=O)C(CCCCCCCCCCNCC(C)C)=C(C)C1=O [Example 22, 2-(10-(isobutylamino)decyl)-3,5,6-trimethylcyclohexa-2,5-diene-1,4-dione]",,,> 7.00,
"CC(C)=CCC/C(C)=C/CC/C(C)=C/CC/C(C)=C/CC1=C(C)C(=O)c2ccccc2C1=O [Vitamin K2, reference compound]",,,,"rescue of cystine deprivation-induced reduction in cell viability ([2]; 1 micromolar, defined as 100% relative viability): completely rescued"
